Measurements from ChEMBL document CHEMBL1155703, “Sequences and antimycoplasmic properties of longibrachins LGB II and LGB III, two novel 20-residue peptaibols from Trichoderma longibrachiatum” (J Nat Prod, 2001).
In brackets after ≈: the same amount, converted by molar mass.

Experiments:
[1] = Bilayer membrane permeabilization assessed as lipid to peptide ratio allowing 50% leakage of entrapped carboxyfluorescein from egg phosphatidylcholine-cholesterol liposomes at 1.1 uM at 20 mins by spectrofluorimetry; assay type: physicochemical
[2] = tested on: Mycoplasmoides gallisepticum; experiment: Antimicrobial activity against Mycoplasma gallisepticum S6 after 2 hrs; assay type: functional; conditions: for MIC: Mycoplasmoides gallisepticum, S6, 2 h
[3] = tested on: Acholeplasma laidlawii; experiment: Antimicrobial activity against Acholeplasma laidlawii PG-8A after 2 hrs; assay type: functional; conditions: for MIC: Acholeplasma laidlawii, PG-8A, 2 h
[4] = tested on: Mycoplasma mycoides subsp. mycoides SC; experiment: Antimicrobial activity against Mycoplasma mycoides subsp. mycoides SC KH3J after 2 hrs; assay type: functional
[5] = tested on: Spiroplasma floricola; experiment: Antimicrobial activity against Spiroplasma floricola BNR1 after 2 hrs; assay type: functional; conditions: for MIC: Spiroplasma floricola, BNR1, 2 h
[6] = tested on: Spiroplasma citri; experiment: Antimicrobial activity against Spiroplasma citri R8A2 after 2 hrs; assay type: functional; conditions: R8A2, 2 h
[7] = tested on: Spiroplasma apis; experiment: Antimicrobial activity against Spiroplasma apis B31 after 2 hrs; assay type: functional; conditions: for MIC: Spiroplasma apis, B31, 2 h
[8] = Bilayer membrane permeabilization assessed as lipid to peptide ratio allowing 50% leakage of entrapped carboxyfluorescein from egg phosphatidylcholine-cholesterol liposomes at 0.21 uM at 20 mins by spectrofluorimetry; assay type: physicochemical
[9] = Bilayer membrane permeabilization assessed as lipid to peptide ratio allowing 50% leakage of entrapped carboxyfluorescein from egg phosphatidylcholine-cholesterol liposomes at 0.49 uM at 20 mins by spectrofluorimetry; assay type: physicochemical
[10] = Bilayer membrane permeabilization assessed as lipid to peptide ratio allowing 50% leakage of entrapped carboxyfluorescein from egg phosphatidylcholine-cholesterol liposomes at 0.40 uM at 20 mins by spectrofluorimetry; assay type: physicochemical; conditions: 0.4 µM
[11] = Bilayer membrane permeabilization assessed as lipid to peptide ratio allowing 50% leakage of entrapped carboxyfluorescein from egg phosphatidylcholine-cholesterol liposomes at 0.13 uM at 20 mins by spectrofluorimetry; assay type: physicochemical
[12] = Bilayer membrane permeabilization assessed as lipid to peptide ratio allowing 50% leakage of entrapped carboxyfluorescein from egg phosphatidylcholine-cholesterol liposomes at 0.36 uM at 20 mins by spectrofluorimetry; assay type: physicochemical

SMILES | MIC [2] [µM] | MIC [3] [µM] | MIC [4] [µM] | MIC [5] [µM] | MIC [6] [µM] | MIC [7] [µM] | further results
CC[C@@](C)(NC(=O)C(C)(C)NC(=O)[C@@H](NC(=O)[C@@H]1CCCN1C(=O)C(C)(C)NC(=O)[C@H](CC(C)C)NC(=O)CNC(=O)C(C)(C)NC(=O)[C@@H](NC(=O)C(C)(C)NC(=O)[C@H](CCC(N)=O)NC(=O)[C@H](C)NC(=O)C(C)(C)NC(=O)[C@H](C)NC(=O)C(C)(C)NC(=O)[C@H](C)NC(=O)C(C)(C)NC(C)=O)C(C)C)C(C)C)C(=O)N[C@@H](CCC(=O)O)C(=O)N[C@@H](CCC(N)=O)C(=O)N[C@H](CO)Cc1ccccc1 | 6.25 (≈ 12.2 µg/mL) | 1.56 (≈ 3.05 µg/mL) | 6.25 (≈ 12.2 µg/mL) | 12.5 (≈ 24.4 µg/mL) | 6.25 (≈ 12.2 µg/mL) | 12.5 (≈ 24.4 µg/mL) | Ratio [1]: 540; MLC [2]: 3.12 µM (≈ 6.09 µg/mL); MLC [3]: 3.12 µM (≈ 6.09 µg/mL); MLC [5]: 3.12 µM (≈ 6.09 µg/mL); MLC [7]: 3.12 µM (≈ 6.09 µg/mL)
CC[C@@](C)(NC(=O)C(C)(C)NC(=O)[C@@H](NC(=O)[C@@H]1CCCN1C(=O)C(C)(C)NC(=O)[C@H](CC(C)C)NC(=O)CNC(=O)C(C)(C)NC(=O)[C@@H](NC(=O)C(C)(C)NC(=O)[C@H](CCC(N)=O)NC(=O)[C@H](C)NC(=O)C(C)(C)NC(=O)[C@H](C)NC(=O)C(C)(C)NC(=O)[C@H](C)NC(=O)C(C)(C)NC(C)=O)C(C)C)C(C)C)C(=O)N[C@@H](CCC(N)=O)C(=O)N[C@@H](CCC(N)=O)C(=O)N[C@@H](CO)Cc1ccccc1 | – | – | – | – | – | – | Ratio [8]: 2860
CC[C@@](C)(NC(=O)C(C)(C)NC(=O)[C@H](C)NC(=O)[C@H](CO)NC(=O)C(C)(C)NC(C)=O)C(=O)N[C@@H](CCC(N)=O)C(=O)NC(C)(C)C(=O)N[C@H](C(=O)NC(C)(C)C(=O)NCC(=O)N[C@@H](CC(C)C)C(=O)NC(C)(C)C(=O)N1CCC[C@H]1C(=O)N[C@@H](CC(C)C)C(=O)NC(C)(C)C(=O)NC(C)(C)C(=O)N[C@@H](CCC(N)=O)C(=O)N[C@H](CO)Cc1ccccc1)C(C)C [listing 1 of 2 here] | – | – | – | – | – | – | Ratio [9]: 1220
CC[C@@](C)(NC(=O)C(C)(C)NC(=O)[C@H](C)NC(=O)[C@H](CO)NC(=O)C(C)(C)NC(C)=O)C(=O)N[C@@H](CCC(N)=O)C(=O)NC(C)(C)C(=O)N[C@H](C(=O)NC(C)(C)C(=O)NCC(=O)N[C@@H](CC(C)C)C(=O)NC(C)(C)C(=O)N1CCC[C@H]1C(=O)N[C@@H](CC(C)C)C(=O)NC(C)(C)C(=O)NC(C)(C)C(=O)N[C@@H](CCC(N)=O)C(=O)N[C@H](CO)Cc1ccccc1)C(C)C [listing 2 of 2 here] | 6.25 (≈ 11.1 µg/mL) | 3.12 (≈ 5.56 µg/mL) | 12.5 (≈ 22.3 µg/mL) | 25 (≈ 44.6 µg/mL) | 12.5 (≈ 22.3 µg/mL) | 12.5 (≈ 22.3 µg/mL) | –
CC[C@@](C)(NC(=O)C(C)(C)NC(=O)[C@@H](NC(=O)[C@@H]1CCCN1C(=O)C(C)(C)NC(=O)C(C)(C)NC(=O)CNC(=O)C(C)(C)NC(=O)C(C)(C)NC(=O)[C@H](CC(C)C)NC(=O)C(C)(C)NC(=O)[C@H](CCC(N)=O)NC(=O)C(C)(C)NC(=O)[C@H](C)NC(=O)C(C)(C)NC(=O)[C@H](C)NC(=O)C(C)(C)NC(C)=O)C(C)C)C(=O)N[C@@H](CCC(N)=O)C(=O)N[C@@H](CCC(N)=O)C(=O)N[C@H](CO)Cc1ccccc1 | – | – | – | – | – | – | Ratio [10]: 1000
CC[C@@](C)(NC(=O)C(C)(C)NC(=O)[C@@H](NC(=O)[C@@H]1CCCN1C(=O)C(C)(C)NC(=O)[C@H](CC(C)C)NC(=O)CNC(=O)C(C)(C)NC(=O)[C@@H](NC(=O)C(C)(C)NC(=O)[C@H](CCC(N)=O)NC(=O)C(C)(C)NC(=O)C(C)(C)NC(=O)[C@H](C)NC(=O)C(C)(C)NC(=O)[C@H](C)NC(=O)C(C)(C)NC(C)=O)C(C)C)C(C)C)C(=O)N[C@@H](CCC(N)=O)C(=O)N[C@@H](CCC(N)=O)C(=O)N[C@H](CO)Cc1ccccc1 | 6.25 (≈ 12.3 µg/mL) | 0.78 (≈ 1.53 µg/mL) | 6.25 (≈ 12.3 µg/mL) | 6.25 (≈ 12.3 µg/mL) | 3.12 (≈ 6.13 µg/mL) | 6.25 (≈ 12.3 µg/mL) | MLC [2]: 3.12 µM (≈ 6.13 µg/mL); MLC [3]: 3.12 µM (≈ 6.13 µg/mL); MLC [5]: 3.12 µM (≈ 6.13 µg/mL); Ratio [11]: 4545; MLC [7]: 3.12 µM (≈ 6.13 µg/mL)
CC[C@@](C)(NC(=O)C(C)(C)NC(=O)[C@@H](NC(=O)[C@@H]1CCCN1C(=O)C(C)(C)NC(=O)[C@H](CC(C)C)NC(=O)CNC(=O)C(C)(C)NC(=O)[C@@H](NC(=O)C(C)(C)NC(=O)[C@H](CCC(N)=O)NC(=O)[C@H](C)NC(=O)C(C)(C)NC(=O)[C@H](C)NC(=O)C(C)(C)NC(=O)[C@H](C)NC(=O)C(C)(C)NC(C)=O)C(C)C)C(C)C)C(=O)N[C@@H](CCC(=O)O)C(=O)N[C@@H](CCC(N)=O)C(=O)N[C@H](COC)Cc1ccccc1 | – | – | – | – | – | – | Ratio [12]: 2500
